System: MT901
Experiment: Intratumoral HER3-DC1 in combination with Taxol
Format: in vivo, mouse
Details: 30 days after tumor cells were transferred
Method: Taxol alone group received two injections of taxol. DC alone group received DCs once weekly beginning on day 5. DC+Taxol group received two injections of taxol before beginning DC treatment.
MT901, a mouse TNBC cell line, was injected in Balb/c mice and treatment began once tumors were palpable. HER3-DC1 vaccine was injected intratumorally once a week for six weeks. HER3 immune responses were measured in spleens, lymph nodes, and tumors post-vaccination. […] To investigate how the peptides would perform in the context of a therapeutic treatment of an established cancer, 5×10^5 MT901 cells were delivered to a Balb/c mouse s.c. and 5 days later weekly administration of 1×10^6 HER3 pulsed DC cells began and continued for six weeks (FIG. 8). […] To determine if the therapeutic or preventive effect could be improved in combination with an anti-cancer agent, mice were administered HER3-pulsed DC1 in combination with Taxol.

## CC(=O)O[C@H]1C(=O)[C@@]2(C)[C@H]([C@H](OC(=O)c3ccccc3)[C@]3(O)C[C@H](OC(=O)[C@H](O)[C@@H](NC(=O)c4ccccc4)c4ccccc4)C(C)=C1C3(C)C)[C@]1(OC(C)=O)CO[C@@H]1C[C@@H]2O [taxol, Paclitaxel]
  established tumors: had established tumors
